Literature values in patent publication US20150080385A1, “OPHTHALMIC PHARMACEUTICAL COMPOSITION CONTAINING A CARBONIC ANHYDRASE INHIBITOR AND METHOD FOR THE PREPARATION THEREOF” (PHARMATHEN S.A., priority 2012, published 2015).

SMILES: CCN[C@H]1CN(CCCOC)S(=O)(=O)c2sc(S(N)(=O)=O)cc21 [Brinzolamide, (R)-4-ethylamino-3,4-dihydro-2-(3-methoxy) propyl-2H-thieno[3,2-e]-1,2-thiazine-6-sulfonamide 1, 1 dioxide]
- Solubility in alcohol and methanol (alcohol and methanol): slightly soluble
- Solubility in water (water): insoluble
